Results on nine molecules are retold here after patent US7879853B2, “4,6-disubstituted pyrimidines and their use as protein kinase inhibitors” (Bayer Schering Pharma AG, priority 2004, dated 2011).

In one data set the test system is MCF7 cells. As to the kind of experiment: Cellular proliferation/cytotoxicity assay (Alamar Blue), MCF7. Conditions: Homo sapiens; MCF7, 48 hours, Alamar Blue (Resazurin); read-out: Anti-proliferative/cytotoxic activity: IC50 MCF7. It counts as cell-based. How it is done: (§1) The anti-proliferative activity of the compounds as described herein, is evaluated using MCF7 and MDA-MB-468 (ATCC HTB-22 and HTB-132) cell lines and the Alamar Blue (Resazurin) cell viability assay (O'Brien et al. Eur J Biochem 267, 5421-5426, 2000). Resazurin is reduced to the fluorescent rescrufin by cellular dehydrogenase activity, correlating with viable, proliferating cells. Test compounds are dissolved as 10 mM solutions in DMSO and subsequently diluted. MCF7 or […] cells were seeded into 96 well flat bottom plates at a density of 10000 cells/well (MCF7) or 5000 cells/well (MDA-MB-468) in a volume of 200 μl/well. 24 hours after seeding, 1 μl each of the compound dilutions are added into each well of the 96 well plates. Each compound dilution is tested as at least as duplicates. Wells containing untreated control cells were filled with 200 μl DMEM containing 0.5% v:v DMSO. The cells are then incubated with the substances for 48 hours at 37° C. in a humidified atmosphere containing 5% carbon dioxide. To determine cell viability, 20 μl of a Resazurin solution (Sigma; 90 mg/l) are added. After 4 hours incubation at 37° C. the fluorescence is measured at an extinction of 544 nm and an emission of 590 nm (Wallac Victor2; Perkin Elmer, USA). For the calculation of the cell viability the emission value from untreated cells is set as 100% viability and the emission rates of treated cells are set in relation to the values of untreated cells. Viabilities are expressed as % values. The corresponding IC50 values of the compounds for cytotoxic activity are determined from the concentration-effect curves by means of non-linear regression. The analysis of the data is performed using a biostatistical program (GraphPad Prism, USA).

A further data set deals with MDA-MB-468 cells. Kind of data set: Cellular proliferation/cytotoxicity assay (Alamar Blue), MDA-MB-468. It counts as cell-based. Conditions: Homo sapiens; MDA-MB-468, 48 hours, Alamar Blue (Resazurin); read-out: Anti-proliferative/cytotoxic activity: IC50 MDA468. How it is done: as §1
Data set [1] deals with T1, Akt1 (full-length Akt1, active) (Homo sapiens, UniProt P31749).
T1 construct: recombinant full-length human Akt1, containing N-terminal His6 tag; His6 (N); GST (alternative statement of the assay paragraph) (N); purchased Upstate, UK #14-276; host or cells: baculovirus infected Sf21 insect cells
T1 sequence (P31749 whole entry): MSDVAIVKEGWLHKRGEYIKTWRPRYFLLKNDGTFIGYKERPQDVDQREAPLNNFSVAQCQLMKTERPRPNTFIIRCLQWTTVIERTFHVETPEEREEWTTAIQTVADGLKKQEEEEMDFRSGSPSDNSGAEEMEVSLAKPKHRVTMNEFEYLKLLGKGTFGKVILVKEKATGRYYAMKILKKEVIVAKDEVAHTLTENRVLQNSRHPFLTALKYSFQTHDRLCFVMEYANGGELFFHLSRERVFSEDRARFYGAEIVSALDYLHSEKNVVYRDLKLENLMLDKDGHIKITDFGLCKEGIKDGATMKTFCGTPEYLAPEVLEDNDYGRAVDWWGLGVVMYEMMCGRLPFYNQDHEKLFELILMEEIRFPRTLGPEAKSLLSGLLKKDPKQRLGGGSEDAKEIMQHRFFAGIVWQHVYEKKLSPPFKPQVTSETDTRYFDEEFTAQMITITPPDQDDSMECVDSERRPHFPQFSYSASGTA
As to the kind of experiment: Biochemical Akt1 (active) assay (full-length Akt1), flashplate, Crosstide. Conditions: Crosstide substrate, 100 nM ATP, 60 minutes at 30° C.; read-out: Akt1 inhibition (full-length Akt1, active): IC50. The source says: For the biochemical Akt1 assay recombinant full-length human Akt1, containing N-terminal His6 tag was cloned and expressed in baculovirus infected Sf21 insect cells. Akt1 is activated with GST-MAPKAP-K2 and PDK1, and repurified on Ni2+/NTA-agrose and glutathioneagarose (Upstate, UK; #14-276).
In order to study the inhibition of Akt1 (full-length version) according to the invention, a flashplate-based assay has been developed.
The full-length Akt1 assay is a biochemical assay using Akt1 N-terminally fused to GST and co-expressed with PDK1 in insect cells. The Akt1 assay is run in 96 well plates by incubating 500 ng/well GST-Akt1, 1 μM Crosstide (N-terminally biotinylated synthetic peptide (KGSGSGRPRTSSFAEG) Upstate, #12-385) as substrate, 10 μl of test compound (test compounds were dissolved as 10 mM solutions in dimethylsulfoxide (DMSO) and subsequently diluted) and 100 nM ATP (including ^33P-ATP) in 100 μl of reaction buffer (50 mM HEPES, pH7.5; 3 mM MgCl2; 3 mM MnCl2; 3 μM Na-Orthovanadat; 1 mM DTT; 1 μg/ml PEG8000) for 60 minutes at 30° C. in 96 well microtiter plates. The reactions are terminated by adding 100 μl stopping buffer (5M NaCl, 35 mM EDTA pH 8,0) for 5 minutes. 190 μl of the reaction mixture are transferred into streptavidin-coated Flashplates (Perkin Elmer, #SMP-103) and incubated for further 30 minutes at room temperature. The plates are washed 3 times by using washing buffer (0.9% NaCl). Relying on the incorporation of ^33P into the peptide substrate crosstide, the detection is based on the specific binding of the biotinylated peptide to the streptavidin-coated surface of scintillator-coated flash plates (NEN, USA; #SMP-103). This phosphorylation is measured by counting the plate for 60 sec. using a plate reader (Wallac Microbeta; Perkin Elmer, USA). The analysis of the data is performed using a biostatistical program (GraphPad Prism, USA).

Another data set has as its target T2, GST-ΔPH-Akt1 (Homo sapiens, UniProt P31749).
T2 construct: named GST-deltaPH-Akt1; 107480aa; cloned in the pAcG1 vector; made in house; host or cells: SF9 insect cells (pAcG1 vector), co-expressed with PDK1
Kind of data set: Biochemical ΔPH Akt1 assay (flashplate, 33P-ATP, histone 2B). Conditions: GST-ΔPH-Akt1, histone 2B substrate, 100 nM ATP, 80 minutes at 30° C.; read-out: Akt inhibition: IC50 (inhibition of deltaPHAkt1). From the text: For the biochemical assay ΔPHAkt1 was used devoid of its PH domain as a GST fusion protein (named GST-deltaPH-Akt1; 107480aa; cloned in the pAcG1 vector (BD Biosciences Pharmingen)), co-expressed with PDK1 in SF9 insect cells. The protein was purified using glutathion-affinity chromatography by standard protocols.
In order to study the inhibition of Akt according to the invention, a flashplate-based assay has been developed.
The Akt1 assay is a biochemical assay using Akt1 devoid of its PH domain and co-expressed with PDK1 in insect cells. The GST-ΔPH-Akt1 assay is run in 96 well plates by incubating 100 ng/well GST-ΔPH-Akt1, 100 ng/well histone 2B (Roche, #223514) as substrate, 10 μl of compound of invention (test compounds were dissolved as 10 mM solutions in dimethylsulfoxide (DMSO) and subsequently diluted) and 100 nM ATP (including ^33P-ATP) in 100 μl of reaction buffer ([…], pH7.5; 3 mM MgCl2; 3 mM MnCl2; 3 μM Na-Orthovanadat; 1 mM DTT; 1 μg/ml PEG8000) for 80 minutes at 30° C. The reactions are terminated by adding 100 μl stopping buffer (2% H3PO4 for 5 minutes) and are washed 3 times by using washing buffer (0.9% NaCl). Relying on the incorporation of ^33P into the protein substrate histone 2B, the detection is based on the adhesion of the phosphorylated protein to the surface of scintillator-coated flash plates (NEN, USA; #SMP-200). This phosphorylation is measured by counting the plate for 60 sec. using a plate reader (Wallac Microbeta; Perkin Elmer, USA). The analysis of the data is performed using a biostatistical program (GraphPad Prism, USA).

For data set [2], the target named is T3, Akt1 (full-length Akt1, inactive) (Homo sapiens, UniProt P31749).
T3 construct: recombinant full-length human Akt1 a containing N-terminal His6 tag; His6 (N); purchased Upstate, UK #14-279; host or cells: baculovirus infected Sf21 insect cells
T3 sequence (P31749 whole entry): as above
Kind of data set: Biochemical Akt1 (inactive) assay (full-length Akt1), IMAP, PDK1-dependent activation. Conditions: activation by PDK1 with PIP3 vesicles, 50 μM ATP, 60 min. at room temperature; read-out: Inhibition of Akt1 activation (full-length Akt1, inactive): IC50. The procedure: The enzyme is purified using Ni2+/NTA-agarose (Upstate, UK; #14-279).
The enzyme is purified using Ni2+/NTA-agarose.
PDK1-dependent activation and subsequent enzymatic activity of Akt1: Activity of purified human Akt1 is routinely measured in an assay in which the enzyme is first activated by PDK1 in the presence of phosphatidylinositol-3,4,5-triphosphate (PIP3). Once activated, Akt1-dependent phosphorylation of a fluorescence labelled peptide substrate is measured by fluorescence polarisation using the IMAP technology (Molecular Devices).
The phospholipids are prepared as follows: 5 mg DOPC/DOPS are solved in 200 μl 10 mM Tris (pH 7.4) and 300 μg PIP3 are resuspended in 950 μl 10 mM Tris (pH 7.4) by pipetting. 950 μl solved PIP3 are mixed with 50 μl solved DOPC/DOPS and incubated for 2 h at a temperature below 20° C. Then the mixture is subjected to sonification for 30 min. at max. power until a translucent phopholipid vesicle preparation is obtained. Aliquots of the vesicle suspension are frozen at −80° C. until needed, likewise the solved DOPC/DOPS.
Assays are performed in 384-well plates. Incubations are carried out for 60 min. at room temperature. The reaction buffer mixture contains in a final volume of 25 μl: 10 mM Tris pH 7.4, 10 mM MgCl2. 1 mM DTT, and 0,1 mg/ml BSA. In contrast the activation buffer contains: 50 ng/well Akt1, 20 ng/well PDK1, 1.25 μM peptide substrat, 50 μM ATP, and phospholipid vesicles (1:20). Test compounds are added from stock solutions in DMSO before activation of Akt1 by PDK1. After the incubation the beads (IMAP binding reagent; Molecular Devices; 1:167) are added and the fluorescence polarization is measured (excitation 485 nm, emission 530 nm). The analysis of the data is performed using a biostatistical program.

The structures appear in SMILES notation.

T2 sequence (P31749 107-480 limits assumed, stated change not applied): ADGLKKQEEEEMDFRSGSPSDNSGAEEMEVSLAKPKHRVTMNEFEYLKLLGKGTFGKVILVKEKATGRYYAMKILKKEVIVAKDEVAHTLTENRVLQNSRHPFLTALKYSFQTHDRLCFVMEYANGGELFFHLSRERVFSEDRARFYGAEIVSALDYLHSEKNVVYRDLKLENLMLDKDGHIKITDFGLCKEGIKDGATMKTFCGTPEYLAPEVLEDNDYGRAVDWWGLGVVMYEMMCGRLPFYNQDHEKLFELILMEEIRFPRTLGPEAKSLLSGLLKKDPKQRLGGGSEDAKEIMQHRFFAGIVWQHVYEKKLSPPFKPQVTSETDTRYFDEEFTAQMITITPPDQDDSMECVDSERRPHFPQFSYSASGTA

In turn, `O=C(Nc1ccc(Nc2cc(-c3cccc4c3oc3ccccc34)ncn2)cc1)c1ccc(C2CCCNC2)cc1.O=C(O)C(F)(F)F` (centres unmarked) [Compound 52, N-[4-(6-Dibenzofuran-4-yl-pyrimidin-4-ylamino)-phenyl]-4-piperidin-3-yl-benzamide trifluoroacetate] had a melting point of 140 to 147 °C. For the same molecule, in the data set with MCF7 cells, the IC50 is at most 16.6 µM. Further, the IC50 in the data set on MDA-MB-468 cells was at most 6.05 µM.
Regarding `NCc1cccc(C(=O)Nc2ccc(Nc3cc(-c4cccc5c4oc4ccccc45)ncn3)cc2)n1` [Compound 73, 6-Aminomethyl-pyridin-2-carbonsäure-[4-(6-dibenzofuran-4-yl-pyrimidin-4-ylamino)-phenyl]-amide], the melting point fell in the range of 183 to 186 °C. Further, the IC50 in data set [1] was at most 1.75 µM.
For `CNCc1ccc(C(=O)Nc2ccc(Nc3cc(-c4cccc5c4oc4ccccc45)ncn3)cc2)cc1.O=C(O)C(F)(F)F` [Compound 63, N-[4-(6-Dibenzofuran-4-yl-pyrimidin-4-ylamino)-phenyl]-4-methylaminomethyl-benzamide trifluoroacetate], the melting point is 130 to 140 °C. The IC50 in the data set with MCF7 cells was at most 16.6 µM. For the same molecule, in the data set with MDA-MB-468 cells, the IC50 is at most 6.05 µM.
As to `N=C(N)c1cccc(C(=O)Nc2ccc(Nc3cc(-c4cccc5c4oc4ccccc45)ncn3)cc2)c1` [Compound 45, 3-Carbamimidoyl-N-[4-(6-dibenzofuran-4-yl-pyrimidin-4-ylamino)-phenyl]-benzamide], the melting point fell in the range of 300 to 306 °C. Also, the IC50 with MCF7 cells was at most 16.6 µM. Also, the IC50 in the data set on MDA-MB-468 cells was at most 6.05 µM.
`O=C(Nc1ccc(Nc2cc(-c3cccc4c3oc3ccccc34)ncn2)cc1)c1ccc2c(c1)CCNC2.O=C(O)C(F)(F)F` [Compound 78, 1,2,3,4-Tetrahydro-isoquinoline-6-carboxylic acid [4-(6-dibenzofuran-4-yl-pyrimidin-4-ylamino)-phenyl]-amide trifluoroacetate] yielded a melting point of 146 °C. For the same molecule, the IC50 on GST-ΔPH-Akt1 was at most 5 µM. For the same molecule, the IC50 in the data set on MCF7 cells was at most 16.6 µM. Also, in the data set with MDA-MB-468 cells, the IC50 is at most 6.05 µM.
`NCc1cccc(C(=O)Nc2ccc(Nc3cc(-c4cccc5c4oc4ccccc45)ncn3)cc2)c1.O=C(O)C(F)(F)F` [Compound 54, 3-Aminomethyl-N-[4-(6-dibenzofuran-4-yl-pyrimidin-4-ylamino)-phenyl]-benzamide trifluoroacetate] registered a melting point of 238 to 240 °C. The IC50 with MCF7 cells is at most 16.6 µM. In addition, the IC50 in the data set with MDA-MB-468 cells is at most 6.05 µM.
`NCc1ccc(C(=O)Nc2cccc(Nc3cc(-c4cccc5c4oc4ccccc45)ncn3)c2)cc1.O=C(O)C(F)(F)F` [Compound 57, 4-Aminomethyl-N-[3-(6-dibenzofuran-4-yl-pyrimidin-4-ylamino)-phenyl]-benzamid trifluoroacetate]: the melting point turned out to be 114 °C. Further, the IC50 at GST-ΔPH-Akt1 is at most 5 µM. The IC50 in data set [1] is at most 1.75 µM. Also, in data set [2], the IC50 is at most 4.4 µM.
With `N=C(N)c1ccc(C(=O)Nc2ccc(Nc3cc(-c4cccc5c4oc4ccccc45)ncn3)cc2)cc1` [Compound 47, 4-Carbamimidoyl-N-[4-(6-dibenzofuran-4-yl-pyrimidin-4-ylamino)-phenyl]-benzamide], the IC50 is at most 16.6 µM in the data set on MCF7 cells and at most 6.05 µM in the data set on MDA-MB-468 cells.
In turn, `NCc1ccc(C(=O)Nc2ccc(Nc3cc(-c4cccc5c4oc4ccccc45)ncn3)cc2)cc1.O=C(O)C(F)(F)F` [Compound 49, 4-Aminomethyl-N-[4-(6-dibenzofuran-4-yl-pyrimidin-4-ylamino)-phenyl]-benzamide trifluoroacetate] yielded a melting point of 155 to 165 °C. Besides, the IC50 in data set [1] was at most 1.75 µM. Further, the IC50 in data set [2] is at most 4.4 µM. Further, the IC50 in the data set with MCF7 cells is at most 16.6 µM. In the data set on MDA-MB-468 cells, the IC50 was at most 6.05 µM.
